The values that follow come from US20220175761A1, “BI-LIGAND DRUG CONJUGATE AND USE THEREOF” (COHERENT BIOPHARMA (SUZHOU), LIMITED, priority 2019, published 2022).

Experiment [1] concerns A549, Hela, SCLC-21H, U-2 OS, T-47D and NCI-H460 tumor cell lines. Description: Inhibition of tumor cell expansion, CCK8 (CB-18G). The experiment is classed as cell-based, human. How it is done: Cell lines: A549 human lung cancer cells, Hela human cervical cancer cells, SCLC-21H small cell lung cancer cells, U-2 OS human osteosarcoma cells, T-47D human breast cancer cells and NCI-H460 human lung cancer cells
The cells were prepared in advance, digested with trypsin, collected and counted; diluted with a complete cell culture medium, A549 cells, Hela cells, SCLC-21H cells and U-2 OS cells were plated at a density of 2×10^4 cells/ml, and T-47D cells and NCI-H460 cells were plated at a density of 3×10^4 cells/ml in 96-well plates; to each well of the 96-well plates, 100 μl of the diluted cell solution was added; and negative control and blank control wells were set on each plate. The 96-well plates added with the cells were placed in an incubator at 37° C., 5% CO2 for culturing overnight.
The samples were diluted with a culture medium to desired concentrations (see Table 15). […]
(§1) To each well, 15 μl (10% of the liquid volume in a well) of a color developing solution from CCK-8 was added; the plates were incubated at 37° C. for an appropriate time (try to keep the OD value in the range of 1.0-2.0); the covers of the 96-well plates were removed, and the plates were read at 450 nm on a microplate reader (Molecular Devices Spectra MAX Plus). […]

Experiment [2] relates to KB, PC-9, SPC-A1, CALU-3 and DU145 cell lines (CDX tumor models). Description: Pharmacodynamic study of CB-18G in CDX models. It counts as in vivo, BALB/c-nude mice. The settings on record: tail vein injection. How it is done:
CB-18G lyophilized powder was weighed, dissolved with PBS and prepared into a sample mother solution, and the mother solution was diluted with a physiological saline for injection to a sample solution with a working concentration for later use.
Main cell lines: KB human oral epidermoid carcinoma cells, PC-9 human lung cancer cells, SPC-A1 human lung adenocarcinoma cells, CALU-3 human lung adenocarcinoma cells and DU145 human prostate cancer cells
Model construction: The cells were resuscitated, cultured, collected and counted, and the cell solution was subcutaneously injected into the right flank of BALB/c-nude mice. When the tumor grew and expanded to 80-160 mm^3, grouping and administration were performed, or rapidly expanded tumor masses were transferred and injected to mice for scale up.
(§2) Grouping: When the tumor grew to about 80-160 mm^3 on average, a grouping was performed, and a model control group and different doses of administration groups were set.
(§3) Administration: The mice were administrated via tail vein injection.
(§4) The weight of mice and the long diameter (a) and short diameter (b) of tumor mass were measured twice a week. The formula for the calculation of tumor volume (TV) is: TV=½×a×b^2.

In experiment [3] the test system is A549, HuH-7, KB, LNcap, DU145 and T-47D tumor cell lines. Briefly: Inhibition of tumor cell expansion, CCK8 (CB-20B). The experiment is classed as cell-based, human. As to the method: Cell lines: A549 human lung cancer cells, HuH-7 human liver cancer cells, KB human oral epidermoid carcinoma cells, LNCaP human prostate cancer cells, DU145 human prostate cancer cells and T-47D human breast cancer cells
The cells were prepared in advance, digested with trypsin, collected and counted; diluted with a complete cell culture medium, A549 cells, HuH-7 cells, KB cells and DU145 cells were plated at a density of 2×10^4 cells/ml, T-47D cells were plated at a density of 1×10^5 cells/ml, and LNCaP cells were plated at a density of 6×10^4 cells/ml in 96-well plates; 100 μl of the diluted cell solution was added to each well; and negative control and blank control wells were set on each plate. The 96-well plates added with the cells were placed in an incubator at 37° C., 5% CO2 for culturing overnight.
The samples were diluted with a culture medium to desired concentrations (see Table 11). […]
as §1

For experiment [4], the system named is KB, PC-9 and DU145 cell lines (CDX tumor models). Description: Pharmacodynamic study of CB-20B in CDX models. It counts as in vivo, BALB/c-nude mice. The settings on record: tail vein injection. As to the method: CB-20B lyophilized powder was weighed, dissolved with PBS and prepared into a sample mother solution, and the mother solution was diluted with a physiological saline for injection to a sample solution with a working concentration for later use.
Main cell lines: KB human oral epidermoid carcinoma cells, PC-9 human lung cancer cells and DU145 human prostate cancer cells.
Model construction: The cells were resuscitated, cultured, collected, counted, and subcutaneously injected into the right flank of BALB/c-nude mice. When the tumor grew and expanded to 80-160 mm^3, grouping and administration were performed, or rapidly expanded tumor masses were transferred and injected to mice for scale up.
as §2, §3, §4

Molecules are shown by their SMILES. Numbered stars: 1 amine (or outer) side, 2 acyl side, 3 side chain; on linkers, the order of the positions; unused ones are H or OH. Bridge positions count the residues as written; N and C are the ends. Square brackets hold non-standard residues; d marks the D form. Side chains are listed from the residue outwards. Peptide text beside a SMILES is read from it. I, II: the chains in the order shown. * marks the point of attachment. EuK = O=C(O)CC[C@H](NC(=O)N[C@@H](CCCCN*)C(=O)O)C(=O)O; Pteroyl = Nc1nc2ncc(CNc3ccc(C(=O)*)cc3)nc2c(=O)[nH]1; Dolaproine = CO[C@@H]([C@@H]1CCCN1)[C@@H](C)C(=O)O; Dil = CC[C@H](C)[C@H](NC)[C@@H](CC(=O)O)OC; X3 = O=C1CC([*:2])C(=O)N1CCCCCC(=O)[*:1]; γGlu = O=C(O)[C@H](CCC(=O)[*:2])N[*:1]; PABC = O=C(OCc1ccc(N[*:1])cc1)[*:2]; X1 = C[C@@H](N*)[C@@H](O)c1ccccc1; X2 = O=C(Cc1ccc(CN[*:1])cc1)[*:2]; Cit = NC(=O)NCCC[C@H](N)C(=O)O; NMeV = CN[C@H](C(=O)O)C(C)C; CO = O=C([*:1])[*:2]

Take `CCCC(=O)N[C@@H](Cc1ccccc1)C(=O)N[C@H]1CSSC[C@@H](C(=O)N[C@H](C(=O)N[C@@H](CCCCNC(=O)[C@H](CCC(=O)O)NC(=O)CCOCCOCCOCCOCCNC(=O)[C@H](CCC(=O)O)NC(=O)[C@H](CSC2CC(=O)N(CCCCCC(=O)N[C@H](C(=O)NC(CCCNC(N)=O)C(=O)Nc3ccc(COC(=O)N(C)[C@H](C(=O)N[C@H](C(=O)N(C)[C@@H]([C@@H](C)CC)[C@@H](CC(=O)N4CCC[C@H]4[C@H](OC)[C@@H](C)C(=O)N[C@H](C)[C@@H](O)c4ccccc4)OC)C(C)C)C(C)C)cc3)C(C)C)C2=O)NC(=O)CC[C@H](NC(=O)c2ccc(NCc3cnc4[nH]c(N)nc(=O)c4n3)cc2)C(=O)O)C(N)=O)[C@@H](C)O)NC(=O)[C@H]([C@@H](C)O)NC(=O)[C@H](CCCCN)NC(=O)[C@H](Cc2c[nH]c3ccccc23)NC(=O)[C@H](Cc2ccc(O)cc2)NC1=O` (stereo partly drawn) [CB-18G]: in experiment [1] (72 hours, CCK-8), the “inhibitory effect on growth and expansion of tumor cell lines” value is given as “has an inhibitory effect”. In experiment [1] (Hela versus NCI-H460), the “IC50 compared between cell lines” value was “significantly lower”. The “inhibitory effect in CDX tumor models (tumor volume)” value in experiment [2] is “good inhibitory effect”.

Take `CC[C@H](C)[C@@H]([C@@H](CC(=O)N1CCC[C@H]1[C@H](OC)[C@@H](C)C(=O)N[C@H](C)[C@@H](O)c1ccccc1)OC)N(C)C(=O)[C@@H](NC(=O)[C@H](C(C)C)N(C)C(=O)OCc1ccc(NC(=O)[C@H](CCCNC(N)=O)NC(=O)[C@@H](NC(=O)CCCCCN2C(=O)CC(SC[C@H](NC(=O)[C@H](CC(=O)O)NC(=O)[C@H](CC(=O)O)NC(=O)Cc3ccc(CNC(=O)NCCCC[C@H](NC(=O)N[C@@H](CCC(=O)O)C(=O)O)C(=O)O)cc3)C(=O)N[C@@H](CCCCNC(=O)CC[C@H](NC(=O)c3ccc(NCc4cnc5[nH]c(N)nc(=O)c5n4)cc3)C(=O)O)C(N)=O)C2=O)C(C)C)cc1)C(C)C` (stereo partly drawn) [CB-20B] (I: V[Cit][PABC][NMeV]V[Dil][Dolaproine]-X1 / II: {EuK-CO}-[X2]DDCK([γGlu-Pteroyl])-NH2; linker I:N-II:4 via X3): the “inhibitory effect on growth and expansion of tumor cell lines” value in experiment [3] (72 hours, CCK-8) is “has an inhibitory effect”. Further, the “IC50 compared between cell lines” value in experiment [3] (T-47D, LNcap, KB, HuH-7 and DU145 versus A549) was “significantly lower”. Further, the “inhibitory effect in CDX tumor models (tumor volume)” value in experiment [4] is “good inhibitory effect”.
